Measurements published in US9758492B2, “IDO inhibitors” (Bristol-Myers Squibb Company, priority 2013, dated 2017).

Columns and labels:
IDO [1] = target: T1, IDO (Homo sapiens, UniProt P14902); assay: Kynurenine assay in Hela cells stimulated with IFN-γ to express IDO; type: cell-based; set-up: endogenous in cells; host or cells: HeLa (ATCC CCL-2), stimulated with human recombinant IFN-gamma; details: 20 h, read-out: Hela Kyurenine (IC50)
Method: IFNg (R&D, 28-IF-100)—resuspend at 10 ug/mL in PBS with 0.1% BSA 30% TCA
Ehrlich reagent (2% w/v p-dimethylaminobenzaldehyde in glacial acetic acid)
Cell Titer 96 Aqueous Non-Radioactive Cell Proliferation Assay, MTS (Promega, Cat # G5430)
Cell Lines and Culture Conditions
Hela cancer cell lines were acquired from the American Type Culture Collection. Cells were maintained in phenol red free-RPMI1640 medium containing high glucose and L-glutamine (Invitrogen) supplemented with 10% fetal bovine serum (FBS; Invitrogen). Cell cultures were incubated at 37° C., 5% CO2, and 100% humidity.
Cell Treatment and Kynurenine Assay
Hela cells were seeded on 96-well plates (40,000 cells per well) and allowed to adhere for 5-6 hours. Cells were then treated with vehicle (DMSO) or with IDO inhibitor at a top dose of 30 μM (3-fold dilution all the way down to 1.5 nM). A final concentration of 100 ng/mL of human recombinant IFN-γ (R&D, 28-IF-100) was immediately added to the cells to stimulate IDO expression. Treated cells were then incubated for 20 hours at 37° C. At the end of the 20 h incubation, reactions were terminated by the addition of 30% TCA to each well. Plates were incubated for 30 minutes at 50° C. to hydrolyze N-formylkynurenine to kynurenine. Cells were centrifuged 10 minutes at 2400 rpm. 100 ul of supernatants were transferred to new 96 flat well plates and mixed with 100 ul Ehrlich reagent. The resulting solution was incubated 10 minutes at RT. Absorbance at 490 nm was read using Spectra Max 384 (Molecular Devices).

IDO [2] = target: T1, IDO; assay: LLE_IDO_ABS_DR (IDO assay)
Human IDO1 = target: T2, Human IDO1 (Homo sapiens, UniProt P14902); assay: IDO Kynurenine Assay with Human IDO1/HEK293 Cells; type: cell-based; details: read-out: HEK human IDO-1 (IC50)
T2 construct: expressed in transfected cells; host or cells: HEK293
T2 sequence (P14902 whole entry): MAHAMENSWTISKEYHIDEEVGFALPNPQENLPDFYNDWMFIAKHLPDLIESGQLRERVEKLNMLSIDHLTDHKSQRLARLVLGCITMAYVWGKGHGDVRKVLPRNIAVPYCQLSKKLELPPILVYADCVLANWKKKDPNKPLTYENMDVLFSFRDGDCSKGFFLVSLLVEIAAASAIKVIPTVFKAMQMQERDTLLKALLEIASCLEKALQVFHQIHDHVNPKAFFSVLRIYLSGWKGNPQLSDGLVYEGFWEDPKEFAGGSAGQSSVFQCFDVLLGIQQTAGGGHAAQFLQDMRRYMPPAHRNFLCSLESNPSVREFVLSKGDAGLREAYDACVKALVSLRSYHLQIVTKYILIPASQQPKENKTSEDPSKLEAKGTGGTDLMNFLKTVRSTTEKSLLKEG
In short: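 HEK293 cells stably expressing human IDO1, in phenol red-free RPMI/10% FBS, exposed to compound for 20 h at 37 °C. Stopped with 0.2% TCA (50 °C, 30 min); kynurenine in supernatant detected with Ehrlich reagent, absorbance 490 nm.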

T1 sequence (P14902 whole entry): as above

SMILES | IC50 (IDO [1]) | IC50 (IDO [2]) | IC50 (Human IDO1)
Cc1ccc(NC(=O)Nc2cc(-c3ccccc3C(=O)O)ccc2N(CC(F)F)CC2CC2)cc1 [Example 61] | 700 nM | 510 nM | –
CN(c1ncc(-c2ccccc2-c2nnn[nH]2)cc1NC(=O)Nc1ccccc1F)C1CCCCC1 [Example 37, 1-(5-(2-(1H-Tetrazol-5-yl)phenyl)-2-(cyclohexyl(methyl)amino)pyridin-3-yl)-3-(2-fluorophenyl)urea] | 10 nM | 40 nM | –
Cc1ccc(NC(=O)Nc2cc(-c3ccccc3-c3nnn[nH]3)ccc2N(CC(F)F)CC2CC2)cc1 [Example 60, 1-(4-((cyclopropylmethyl) (2,2-difluoroethyl)amino)-2′-(1H-tetrazol-5-yl)biphenyl-3-yl)-3-p-tolylurea] | 140 nM | 140 nM | –
Cc1ccc(NC(=O)Nc2cc(-c3ccccc3C(=O)O)c(F)cc2N(CC(F)F)CC2CC2)cc1 [Example 224, 4′-((cyclopropylmethyl)(2,2-difluoroethyl)amino)-2′-fluoro-5′-(3-p-tolylureido)biphenyl-2-carboxylic acid] | 440 nM | 640 nM | –
COC(CN(C)c1ccc(-c2ccccc2C(=O)O)cc1NC(=O)Nc1ccc(C)cc1)OC [Example 54, 4′-((2,2-dimethoxyethyl) (methyl)amino)-3′-(3-p-tolylureido) biphenyl-2-carboxylic acid] | 80 nM | 300 nM | –
Cc1ccc(NC(=O)Nc2cc(-c3ccccc3-c3nnn[nH]3)c(F)cc2N(CC(F)F)CC2CC2)cc1 [Example 223, 1-(4-((cyclopropylmethyl)(2,2-difluoroethyl)amino)-6-fluoro-2′-(1H-tetrazol-5-yl)biphenyl-3-yl)-3-p-tolylurea] | 160 nM | 420 nM | –
Cc1ccc(NC(=O)Nc2cc(-c3ccccc3C(=O)O)ccc2N2CCC[C@@H]3CCCC[C@@H]32)cc1 [Example 49, 4′-((4aS,8aS)-octahydroquinolin-1(2H)-yl)-3′-(3-p-tolylureido)biphenyl-2-carboxylic acid] | 180 nM | 160 nM | –
CCCN(CC1CC1)c1ccc(-c2ccccc2C(=O)O)cc1NC(=O)Nc1ccc(C)cc1 [Example 58, 4′-((cyclopropylmethyl) (propyl)amino)-3′-(3-p-tolylureido) biphenyl-2-carboxylic acid] | 60 nM | 100 nM | –
O=C(Nc1ccc(F)cc1F)Nc1cc(-c2ccccc2-c2nnn[nH]2)ccc1N(CCC(F)(F)F)Cc1ccccn1 [Example 344, 1-(2,4-difluorophenyl)-3-(4-((pyridin-2-ylmethyl)(3,3,3-trifluoropropyl)amino)-2′-(1H-tetrazol-5-yl)-[1,1′-biphenyl]-3-yl) urea] | – | 30 nM | 50 nM
CC(C)CN(CC(C)C)c1ccc(-c2cc(F)ccc2-c2nnn[nH]2)cc1NC(=O)Nc1ccccc1F [Example 484] | – | 2.5 nM | 10 nM
Cc1ccc(NC(=O)Nc2cc(-c3ccccc3C(=O)O)ccc2N(CCC(F)(F)F)Cc2ccc(Cl)cc2)cc1 [Example 14, 4′-((4-Chlorobenzyl)(3,3,3-trifluoropropyl)amino)-3′-(3-(p-tolyl)ureido)-[1,1′-biphenyl]-2-carboxylic acid] | – | 80 nM | 100 nM
Cc1ccc(NC(=O)Nc2cc(-c3ccccc3-c3nnn[nH]3)ccc2N2CC3CC2CN3Cc2ccccc2)cc1 (centres unmarked) [Example 317, 1-(4-(5-benzyl-2,5-diazabicyclo[2.2.1]heptan-2-yl)-2′-(1H-tetrazol-5-yl)-[1,1′-biphenyl]-3-yl)-3-(p-tolyl)urea] | – | 30 nM | 50 nM
Cc1ccc(NC(=O)Nc2cc(-c3ccccc3-c3nnn[nH]3)cc(Cl)c2N(CC(C)C)CC(C)C)cc1 [Example 39, 1-(5-Chloro-4-(diisobutylamino)-2′-(1H-tetrazol-5-yl)biphenyl-3-yl)-3-p-tolylurea] | – | 1 nM | 2.37 nM
Cc1ccc(NC(=O)Nc2cc(-c3ccccc3-c3nnn[nH]3)ccc2N2CCCc3ccccc32)cc1 [Example 361, 1-(4-(3,4-Dihydroquinolin-1(2H)-yl)-2′-(1H-tetrazol-5-yl)-[1,1′-biphenyl]-3-yl)-3-(p-tolyl)urea] | – | 110 nM | 220 nM
O=C(Nc1ccc(C(F)(F)F)cc1F)Nc1cc(-c2ccccc2-c2nnn[nH]2)ccc1N(CCC(F)(F)F)Cc1ccccn1 [Example 303, 1-(2-fluoro-4-(trifluoromethyl)phenyl)-3-(4-((pyridin-2-ylmethyl)(3,3,3-trifluoropropyl)amino)-2′-(1H-tetrazol-5-yl)-[1,1′-biphenyl]-3-yl)urea] | – | 50 nM | 280 nM
O=C(Nc1ccc(F)cc1F)Nc1cc(-c2ccccc2-c2nnn[nH]2)ccc1N(CCC(F)(F)F)Cc1ccc(OC(F)(F)F)cc1 [Example 504, 1-(2′-(1H-Tetrazol-5-yl)-4-((4-(trifluoromethoxy)benzyl)(3,3,3-trifluoropropyl)amino)-[1,1′-biphenyl]-3-yl)-3-(2,4-difluorophenyl)urea] | – | 0.4 nM | 5.14 nM
Cc1ccc(NC(=O)Nc2cc(-c3cccc(F)c3C(=O)O)ccc2N(CC(C)C)CC(C)C)cc1 [Example 150, 4′-(diisobutylamino)-3-fluoro-3′-(3-p-tolylureido)biphenyl-2-carboxylic acid] | – | 40 nM | 60 nM
O=C(Nc1ccc(C2CC2)cc1)Nc1cc(-c2ccccc2-c2nnn[nH]2)ccc1N(CCC(F)(F)F)Cc1ccc(OC(F)(F)F)cc1 [Example 302, 1-(2′-(1H-tetrazol-5-yl)-4-((4-(trifluoromethoxy)benzyl)(3,3,3-trifluoropropyl)amino)-[1,1′-biphenyl]-3-yl)-3-(4-cyclopropylphenyl)urea] | – | 3.26 nM | 5.53 nM
Cc1ccc(NC(=O)Nc2cc(-c3ccccc3-c3nnn[nH]3)ccc2N(CCC(F)(F)F)Cc2ccc(OC(F)(F)F)cc2)cc1 [Example 341, 1-(2′-(1H-tetrazol-5-yl)-4-((4-(trifluoromethoxy)benzyl)(3,3,3-trifluoropropyl)amino)-[1,1′-biphenyl]-3-yl)-3-(p-tolyl)urea] | – | 1.73 nM | 0.845 nM

Continued, values first:

IC50 (IDO [1]) | IC50 (IDO [2]) | IC50 (Human IDO1) | SMILES
1.72 nM | 7.93 nM | – | Cc1ccc(NC(=O)Nc2cc(-c3ccccc3-c3nnn[nH]3)ccc2N(C)C2CCCCC2)cc1 [Example 44, 1-(4-(cyclohexyl (methyl)amino)-2′-(1H-tetrazol-5-yl)biphenyl-3-yl)-3-p-tolylurea]
2280 nM | 4120 nM | – | COc1ccc(-c2ccc(N(CC(F)F)CC3CC3)c(NC(=O)Nc3ccc(C)cc3)c2)cc1C(=O)O [Example 62, 4′-((cyclopropylmethyl) (2,2-difluoroethyl)amino)-4-methoxy-3′-(3-p-tolylureido)biphenyl-3-carboxylic acid]
10 nM | 60 nM | – | CN(c1ccc(-c2ccccc2-c2nnn[nH]2)cc1NC(=O)Nc1ccccc1Cl)C1CCCCC1 [Example 45, 1-(2-chlorophenyl)-3-(4-(cyclohexyl (methyl)amino)-2′-(1H-tetrazol-5-yl)biphenyl-3-yl)urea]
1.07 nM | 2.36 nM | – | CN(c1ccc(-c2ccccc2-c2nnn[nH]2)cc1NC(=O)Nc1ccccc1F)C1CCCCC1 [Example 214, 1-(4-(cyclohexyl(methyl)amino)-2′-(1H-tetrazol-5-yl)biphenyl-3-yl)-3-(2-fluorophenyl)urea]
120 nM | 1280 nM | – | CN(c1ccc(-c2ccccc2C(=O)O)cc1NC(=O)Nc1ccccc1Cl)C1CCCCC1 [Example 215, 3′-(3-(2-chlorophenyl)ureido)-4′-(cyclohexyl(methyl)amino) biphenyl-2-carboxylic acid]
200 nM | 1270 nM | – | CN(c1ccc(-c2ccccc2-c2nnn[nH]2)cc1NC(=O)Nc1ccccc1C(F)(F)F)C1CCCCC1 [Example 212, 1-(4-(cyclohexyl(methyl)amino)-2′-(1H-tetrazol-5-yl)biphenyl-3-yl)-3-(2-(trifluoromethyl)phenyl)urea]
1170 nM | – | – | COc1ccc(-c2ccc(N(C)C3CCCCC3)c(NC(=O)Nc3ccccc3Cl)c2)cc1C(=O)O [Example 42, 3′-(3-(2-chlorophenyl)ureido)-4′-(cyclohexyl(methyl)amino)-4-methoxybiphenyl-3-carboxylic acid]
1430 nM | – | – | COc1ccc(-c2ccc(N(C)C3CCCCC3)c(NC(=O)Nc3ccc(C)cc3)c2)cc1C(=O)O [Example 43, 4′-(cyclohexyl (methyl)amino)-4-methoxy-3′-(3-p-tolylureido)biphenyl-3-carboxylic acid]
2130 nM | – | – | Cc1ccc(NC(=O)Nc2cc(-c3ccccc3C(=O)O)ccc2N(C)C2CCOCC2)cc1 [Example 51, 4′-(methyl(tetra-hydro-2H-pyran-4-yl)amino)-3′-(3-p-tolylureido)biphenyl-2-carboxylic acid]
